According to ChEMBL document CHEMBL4311985, “Novel virosecurinine bivalent mimetics as potent reversal agents against P-glycoprotein-mediated multidrug resistance” (Eur J Med Chem, 2019):
Activity calls are given as the source filed them. The rule behind the calls is not given here.

Legend:
[1] = target: T1, ATP-dependent translocase ABCB1 (Homo sapiens, UniProt P08183); assay: Reversal of P-gp mediated multidrug resistance in human HepG2/Dox cells assessed as potentiation of doxorubicin-induced cell growth inhibition at 10 uM measured after 48 hrs by MTT assay (reference value: 24%); format: cell-based
T1 sequence (P08183 whole entry): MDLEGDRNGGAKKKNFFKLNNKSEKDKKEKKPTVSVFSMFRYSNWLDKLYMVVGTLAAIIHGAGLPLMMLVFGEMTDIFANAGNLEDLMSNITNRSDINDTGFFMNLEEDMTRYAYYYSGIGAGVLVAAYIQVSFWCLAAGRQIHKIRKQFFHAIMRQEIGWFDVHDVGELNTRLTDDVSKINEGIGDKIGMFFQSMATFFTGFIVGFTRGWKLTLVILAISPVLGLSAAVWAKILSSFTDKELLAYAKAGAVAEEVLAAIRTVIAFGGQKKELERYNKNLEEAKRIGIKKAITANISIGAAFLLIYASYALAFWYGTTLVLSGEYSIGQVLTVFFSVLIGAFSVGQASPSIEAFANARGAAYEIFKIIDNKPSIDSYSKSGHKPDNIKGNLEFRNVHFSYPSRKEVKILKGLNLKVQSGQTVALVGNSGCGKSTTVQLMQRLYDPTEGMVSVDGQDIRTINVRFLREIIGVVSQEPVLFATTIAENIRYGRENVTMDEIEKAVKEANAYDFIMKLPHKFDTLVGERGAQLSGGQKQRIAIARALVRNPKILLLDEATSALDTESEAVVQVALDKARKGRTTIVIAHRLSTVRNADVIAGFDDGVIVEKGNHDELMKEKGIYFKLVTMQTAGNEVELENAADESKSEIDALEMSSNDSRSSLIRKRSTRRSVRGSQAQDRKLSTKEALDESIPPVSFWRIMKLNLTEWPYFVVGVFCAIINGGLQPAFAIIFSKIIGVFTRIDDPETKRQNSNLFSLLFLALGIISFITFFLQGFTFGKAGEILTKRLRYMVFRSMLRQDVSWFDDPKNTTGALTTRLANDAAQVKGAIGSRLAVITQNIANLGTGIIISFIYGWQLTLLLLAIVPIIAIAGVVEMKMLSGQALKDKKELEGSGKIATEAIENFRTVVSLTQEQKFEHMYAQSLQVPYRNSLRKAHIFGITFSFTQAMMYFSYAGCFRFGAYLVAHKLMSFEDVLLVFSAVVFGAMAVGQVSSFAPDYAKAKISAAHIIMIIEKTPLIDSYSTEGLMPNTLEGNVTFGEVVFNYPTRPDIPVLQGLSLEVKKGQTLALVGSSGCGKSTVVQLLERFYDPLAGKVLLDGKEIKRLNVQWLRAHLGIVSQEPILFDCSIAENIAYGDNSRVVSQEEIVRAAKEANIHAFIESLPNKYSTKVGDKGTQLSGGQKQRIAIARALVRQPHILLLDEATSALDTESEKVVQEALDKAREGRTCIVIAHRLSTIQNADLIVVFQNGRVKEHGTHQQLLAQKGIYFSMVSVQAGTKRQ

[2] = target: T1, ATP-dependent translocase ABCB1; assay: Reversal of P-gp mediated multidrug resistance in human MCF7/ADM cells assessed as potentiation of doxorubicin-induced cell growth inhibition at 10 uM measured after 48 hrs by MTT assay; format: cell-based
[3] = target: T1, ATP-dependent translocase ABCB1; assay: Reversal of P-gp mediated multidrug resistance in human MCF7/ADM cells assessed as potentiation of doxorubicin-induced cell growth inhibition at 10 uM measured after 48 hrs by MTT assay (reference value: 5%); format: cell-based
[4] = Cytotoxicity against human HepG2/DOX cells assessed as reduction in cell viability at 10 uM measured after 48 hrs by MTT assay; format: cell-based
[5] = Cytotoxicity against human MCF7/ADM cells assessed as reduction in cell viability at 10 uM measured after 48 hrs by MTT assay; format: cell-based
[6] = target: T1, ATP-dependent translocase ABCB1; assay: Reversal of P-gp mediated multidrug resistance in human HepG2/Dox cells assessed as potentiation of doxorubicin-induced cell growth inhibition at 10 uM measured after 48 hrs by MTT assay; format: cell-based
[7] = Cardiotoxicity in BALB/c nude mouse xenografted with human HepG2/Dox cells assessed as effect on myocardial cells at 25 mg/kg, ip administered daily by hematoxylin and eosin staining based assay; format: toxicity, organism-based; details: in vivo
[8] = Toxicity in liver of BALB/c nude mouse xenografted with human HepG2/Dox cells at 25 mg/kg, ip administered daily by hematoxylin and eosin staining based assay; format: organism-based; details: in vivo
[9] = target: T1, ATP-dependent translocase ABCB1; assay: Reversal of P-gp mediated multidrug resistance in human HepG2/DOX cells assessed as fold reduction in doxorubicin IC50 at 10 uM measured within 48 hrs by MTT assay relative to control; format: cell-based
[10] = Cardiotoxicity in BALB/c nude mouse xenografted with human HepG2/Dox cells assessed as effect on doxorubicin-induced myocardial cell enlargement at 25 mg/kg, iv cotreated with doxorubicin every 3rd day for 12 days by hematoxylin and eosin staining based assay; format: toxicity, organism-based; details: in vivo, 288 h
[11] = target: T1, ATP-dependent translocase ABCB1; assay: Inhibition of P-gp mediated doxorubicin efflux in human HepG2/Dox cells at 5 to 10 uM preincubated for 4 hrs followed by co-incubation with doxorubicin for 2 hrs followed by doxorubicin wash-out and measured after 120 mins incubation with drug containing culture medium by fluorescence based analysis; format: cell-based
[12] = target: T1, ATP-dependent translocase ABCB1; assay: Reversal of P-gp mediated drug efflux in human HepG2/Dox cells assessed as increase in intracellular Rhodamine123 accumulation at 10 uM preincubated for 4 hrs followed by Rh123 addition measured after 1 hr incubation by fluorescence microscopic analysis; format: cell-based
[13] = target: T1, ATP-dependent translocase ABCB1; assay: Reversal of P-gp mediated drug efflux in human MCF7/ADM cells assessed as increase in intracellular doxorubicin accumulation at 10 uM preincubated for 4 hrs followed by doxorubicin addition measured after 1 hr incubation by fluorescence microscopic analysis; format: cell-based
[14] = target: T1, ATP-dependent translocase ABCB1; assay: Reversal of P-gp mediated drug efflux in human MCF7/ADM cells assessed as increase in intracellular Rhodamine123 accumulation at 10 uM preincubated for 4 hrs followed by Rh123 addition measured after 1 hr incubation by fluorescence microscopic analysis; format: cell-based
[15] = Cytotoxicity against human HepG2/DOX cells assessed as cell viability at 10 uM measured after 48 hrs by MTT assay relative to control; format: cell-based; details: read-out: Activity
Homo sapiens [16] = species on record: Homo sapiens; assay: Effect on P-gp expression in human HepG2/Dox cells at 5 to 10 uM measured after 48 hrs by Western blot analysis; format: functional, cell-based
[17] = Toxicity in liver of BALB/c nude mouse xenografted with human HepG2/Dox cells at 25 mg/kg, iv cotreated with doxorubicin every 3rd day for 12 days by hematoxylin and eosin staining based assay; format: organism-based; details: in vivo, 288 h
[18] = Cytotoxicity against human AC16 cells assessed as cell survival at 50 uM measured after 72 hrs by MTT assay relative to control; format: cell-based; details: read-out: Activity
[19] = Toxicity in BALB/c nude mouse xenografted with human HepG2/Dox cells assessed as effect on body weight at 25 mg/kg, ip administered daily; format: organism-based; details: in vivo
MCF7 = assay: Cytotoxicity against human MCF7 cells assessed as cell viability at 5 to 50 uM measured after 48 hrs by MTT assay; format: cell-based; details: mcf7, 48 h
[20] = Toxicity in spleen of BALB/c nude mouse xenografted with human HepG2/Dox cells assessed as inflammation at 25 mg/kg, iv cotreated with doxorubicin every 3rd day for 12 days by hematoxylin and eosin staining based assay; format: organism-based; details: in vivo, 288 h
[21] = target: T1, ATP-dependent translocase ABCB1; assay: Reversal of P-gp mediated multidrug resistance in human HepG2/DOX cells assessed as potentiation of doxorubicin-induced cytotoxicity at 5 to 10 uM by MTT assay; format: cell-based; details: TDE = time-dependent effect
[22] = Toxicity in kidney of BALB/c nude mouse xenografted with human HepG2/Dox cells at 25 mg/kg, iv cotreated with doxorubicin every 3rd for 12 days by hematoxylin and eosin staining based assay; format: organism-based; details: in vivo, 288 h
[23] = target: T1, ATP-dependent translocase ABCB1; assay: Reversal of P-gp mediated multidrug resistance in human MCF7/ADM cells assessed as fold reduction in doxorubicin IC50 at 10 uM measured within 48 hrs by MTT assay relative to control; format: cell-based
[24] = target: T1, ATP-dependent translocase ABCB1; assay: Reversal of P-gp mediated multidrug resistance in human MCF7/ADM cells assessed as fold reduction in doxorubicin IC50 at 5 uM measured within 48 hrs by MTT assay relative to control; format: cell-based
[25] = Cytotoxicity against human MCF7/ADM cells assessed as cell viability at 10 uM measured after 48 hrs by MTT assay relative to control; format: cell-based; details: read-out: Activity
Homo sapiens [26] = assay: In vivo reversal of P-gp mediated drug resistance in human HepG2/Dox cells xenografted in BALB/c nude mouse assessed as reduction in tumour growth at 25 mg/kg, iv co-administered with doxorubicin every 3rd day for 12 days; format: functional, organism-based
[27] = target: T1, ATP-dependent translocase ABCB1; assay: Stimulation of P-gp ATPase activity (unknown origin) at 5 to 10 uM incubated for 40 mins by P-gp-Glo luminescence assay
[28] = target: T1, ATP-dependent translocase ABCB1; assay: Reversal of P-gp mediated multidrug resistance in human MCF7/ADM cells assessed as potentiation of doxorubicin-induced cytotoxicity at 5 to 10 uM by MTT assay; format: cell-based; details: TDE = time-dependent effect
HepG2 = assay: Cytotoxicity against human HepG2 cells assessed as cell viability at 5 to 50 uM measured after 48 hrs by MTT assay; format: cell-based; details: hepg2, 48 h
[29] = target: T1, ATP-dependent translocase ABCB1; assay: Reversal of P-gp mediated drug efflux in human HepG2/Dox cells assessed as increase in intracellular doxorubicin accumulation at 10 uM preincubated for 4 hrs followed by doxorubicin addition measured after 1 hr incubation by fluorescence microscopic analysis; format: cell-based
[30] = target: T1, ATP-dependent translocase ABCB1; assay: Reversal of P-gp mediated drug efflux in human HepG2/Dox cells assessed as increase in intracellular doxorubicin accumulation at 5 to 10 uM preincubated for 4 hrs followed by doxorubicin addition measured after 1 hr incubation by flow cytometry analysis; format: cell-based
Homo sapiens [31] = assay: In vivo reversal of P-gp mediated drug resistance in human HepG2/Dox cells xenografted in BALB/c nude mouse assessed as tumour growth at 25 mg/kg, ip administered daily; format: functional, organism-based
[32] = Toxicity in spleen of BALB/c nude mouse xenografted with human HepG2/Dox cells assessed as blood extravasation at 25 mg/kg, iv cotreated with doxorubicin every 3rd day for 12 days by hematoxylin and eosin staining based assay; format: organism-based; details: in vivo, 288 h
[33] = target: T1, ATP-dependent translocase ABCB1; assay: Reversal of P-gp mediated drug efflux in human HepG2/Dox cells assessed as increase in intracellular Rhodamine123 accumulation at 5 to 10 uM preincubated for 4 hrs followed by Rh123 addition measured after 1 hr incubation by flow cytometry analysis; format: cell-based
[34] = target: T1, ATP-dependent translocase ABCB1; assay: Inhibition of P-gp mediated doxorubicin efflux in human MCF7/ADM cells at 5 to 10 uM preincubated for 4 hrs followed by co-incubation with doxorubicin for 2 hrs followed by doxorubicin wash-out and measured after 120 mins incubation with drug containing culture medium by fluorescence based analysis; format: cell-based
Homo sapiens [35] = species on record: Homo sapiens; assay: Effect on P-gp expression in human MCF7/ADM cells at 5 to 10 uM measured after 48 hrs by Western blot analysis; format: functional, cell-based
[36] = Toxicity in BALB/c nude mouse xenografted with human HepG2/Dox cells assessed as effect on doxorubicin-induced body weight decline at 25 mg/kg, iv coadministered with doxorubicin every 3rd day for 12 days; format: organism-based; details: in vivo, 288 h
[37] = target: T1, ATP-dependent translocase ABCB1; assay: Reversal of P-gp mediated multidrug resistance in human HepG2/DOX cells assessed as potentiation of taxol-induced cytotoxicity at 5 to 10 uM by MTT assay; format: cell-based; details: TDE = time-dependent effect
[38] = Toxicity in kidney of BALB/c nude mouse xenografted with human HepG2/Dox cells at 25 mg/kg, ip administered daily by hematoxylin and eosin staining based assay; format: organism-based; details: in vivo
[39] = Toxicity in lung of BALB/c nude mouse xenografted with human HepG2/Dox cells at 25 mg/kg, iv cotreated with doxorubicin every 3rd day for 12 days by hematoxylin and eosin staining based assay; format: organism-based; details: in vivo, 288 h
[40] = Toxicity in lung of BALB/c nude mouse xenografted with human HepG2/Dox cells at 25 mg/kg, ip administered daily by hematoxylin and eosin staining based assay; format: organism-based; details: in vivo

CCCN(C(=O)CCCCC(=O)N(CCC)[C@H]1CC2=CC(=O)O[C@@]23C[C@@H]1N1CCCC[C@@H]13)[C@H]1CC2=CC(=O)O[C@@]23C[C@@H]1N1CCCC[C@@H]13
inhibition at 10 µM [1]: 79%
inhibition (INH) [2]: Not Active

O=C1C=C2C=C[C@@H]3C[C@@]2(O1)[C@H]1CCCCN31 [SECURININE]
inhibition at 10 µM [1]: 36%
inhibition at 10 µM [3]: 31%

CCCN(C(=O)CCCCCC(=O)N(CCC)[C@H]1CC2=CC(=O)O[C@@]23C[C@@H]1N1CCCC[C@@H]13)[C@H]1CC2=CC(=O)O[C@@]23C[C@@H]1N1CCCC[C@@H]13
inhibition at 10 µM [1]: 78%
Activity [4]: Toxic
inhibition at 10 µM [3]: 84%
Activity [5]: Toxic

CCCN(C(=O)CCCCC(=O)N(CCC)[C@H]1CC2=CC(=O)O[C@]23C[C@H]1N1CCCC[C@H]13)[C@H]1CC2=CC(=O)O[C@]23C[C@H]1N1CCCC[C@H]13
Activity [4]: Toxic
inhibition (INH) [6]: Active
Activity [5]: Toxic
inhibition (INH) [2]: Active

CCCN(C(=O)CCCCCCCC(=O)N(CCC)[C@H]1CC2=CC(=O)O[C@]23C[C@H]1N1CCCC[C@H]13)[C@H]1CC2=CC(=O)O[C@]23C[C@H]1N1CCCC[C@H]13
Activity [4]: Toxic
inhibition (INH) [6]: Active
Activity [5]: Toxic
inhibition (INH) [2]: Active

CCCN(C(=O)CCCCCCC(=O)N(CCC)[C@H]1CC2=CC(=O)O[C@]23C[C@H]1N1CCCC[C@H]13)[C@H]1CC2=CC(=O)O[C@]23C[C@H]1N1CCCC[C@H]13
inhibition at 10 µM [1]: 85%
Activity [7]: Non-Toxic
Activity [8]: Non-Toxic
fold change (FC) [9]: 231
Activity [10]: Non-Toxic
inhibition (INH) [11]: Active
inhibition (INH) [12]: Active
inhibition (INH) [13]: Active
inhibition (INH) [14]: Active
viability at 48 h, 10 µM [15]: > 90%
Activity (Homo sapiens [16]): inactive
Activity [17]: Non-Toxic
inhibition at 10 µM [3]: 78%
viability at 72 h, 50 µM [18]: 100%
Activity [19]: Non-Toxic
Activity (MCF7): Non-Toxic
Activity [20]: Toxic
inhibition (INH) [21]: Tde
Activity [22]: Non-Toxic
fold change (FC) [23]: 126.4
fold change (FC) [24]: 10.4
viability at 48 h, 10 µM [25]: > 90%
inhibition (Homo sapiens [26]): Active
Activity [27]: Active
inhibition (INH) [28]: Tde
Activity (HepG2): Non-Toxic
inhibition (INH) [29]: Active
inhibition (INH) [30]: Active
inhibition (Homo sapiens [31]): inactive
Activity [32]: Toxic
inhibition (INH) [33]: Active
inhibition (INH) [34]: Active
Activity (Homo sapiens [35]): inactive
Activity [36]: Non-Toxic
inhibition (INH) [37]: Tde
Activity [38]: Non-Toxic
Activity [39]: Non-Toxic
Activity [40]: Non-Toxic

CCCN(C(=O)CCCCCCC(=O)N(CCC)[C@H]1CC2=CC(=O)O[C@@]23C[C@@H]1N1CCCC[C@@H]13)[C@H]1CC2=CC(=O)O[C@@]23C[C@@H]1N1CCCC[C@@H]13
inhibition at 10 µM [1]: 81%
inhibition (INH) [2]: Not Active

CCCN(C(=O)CCCCCCCCC(=O)N(CCC)[C@H]1CC2=CC(=O)O[C@]23C[C@H]1N1CCCC[C@H]13)[C@H]1CC2=CC(=O)O[C@]23C[C@H]1N1CCCC[C@H]13
Activity [4]: Toxic
inhibition (INH) [6]: Active
Activity [5]: Toxic
inhibition (INH) [2]: Active

CCCN(C(=O)CCCCCC(=O)N(CCC)[C@H]1CC2=CC(=O)O[C@]23C[C@H]1N1CCCC[C@H]13)[C@H]1CC2=CC(=O)O[C@]23C[C@H]1N1CCCC[C@H]13
Activity [4]: Toxic
Activity [5]: Toxic

COc1ccc(CCN(C)CCCC(C#N)(c2ccc(OC)c(OC)c2)C(C)C)cc1OC (centres undefined) [VERAPAMIL]
inhibition at 10 µM [1]: 84%
inhibition at 10 µM [3]: 70%
